# In patent US9610292B2, “Uses for 4,17β-dihydroxyandrost-4-ene-3-one” (MaBel GmbH, priority 2006, dated 2017):
# Tests used:
# MCF-7 cells = assay: Inhibition of MCF-7 cell proliferation (counting of vital cells); type: cell-based, human; conditions: 10^-7 M, 10^-8 M and 10^-9 M; cell counting after 3, 6 and 9 days; compared with DHT and control
# Procedure: MCF-7 cells were grown in RPMI 1640 medium at 37° C. to a cell number of about 1*10^5 cells/ml. Then, in quadruple identical MCF-7 cell samples, there were added either dihydrotestosterone (DHT) or 4-hydroxytestosterone (4-OHT), to obtain different concentrations thereof, namely 10^−7 M, 10^−8 M or 10^−9 M, and further growth of cells were determined by counting of vital cells. During the course of incubation at 37° C., cell counting were performed after 3, 6 and 9 days. For control, growth of MCF-7 cells were determined without addition of an active agent.
# The results on an inhibition of MCF-7 cell proliferation are shown in FIGS. 1A, 1B and 1C for the compound concentrations of 10^−7 M, 10^−8 M and 10^−9 M of either DHT or 4-OHT, respectively, and compared with the control.
# [1] = tested on: malign breast carcinoma (C. mammae); assay: Double blind clinical test, topical cream once a day for 3 months, patients with malign breast carcinoma; type: in vivo, human; conditions: for Clinical Remission: daily topical cream, 3 months
# Procedure: Double blind clinical tests were conducted with a group of 10 female patients. In this clinical testing, particular attention was paid to hormone receptor statuses of patients' target breast cancer tissue regarding progesterone receptor (PR) and in particular regarding estrogen receptor (ER); The cancers of the patients were assumed to be predominantly androgen receptor (AR) positive. Among this group, six patients had histologically ascertained malign breast carcinoma (C. mammae). […] In a sixth patient, the presence of a malign breast carcinoma was ascertained, but the amount of cancer tissue was too low to determine receptor status.
# (§1) All 10 female patients were topically and locally treated using 4-hydroxytestosterone as active agent, by administering of a cream as described in Example 2 locally to target skin portions of the breasts. After continuing daily topical administration once a day during an administration period of 3 months, clinical investigations on therapeutic effects were performed.
# The results of the 6 patients having malign breast carcinoma are shown in the following Table 1, together with the receptor status determined for patient nos. 1 to 5.
# [2] = tested on: normal or mastopathic breast tissue; assay: Double blind clinical test, topical cream, patients with non-malign disease states; type: in vivo, human; conditions: 4 patients having non-malign disease states, topical administration
# Procedure: as §1
smiles,measurement,setting,value
"C[C@]12CC[C@H]3[C@@H](CCC4=C(O)C(=O)CC[C@@]43C)[C@@H]1CC[C@@H]2O [4-hydroxytestosterone, 4,17β-dihydroxyandrost-4-ene-3-one]",inhibitory effect on MCF-7 cell proliferation,MCF-7 cells,significantly enhanced inhibitory effect
same,Clinical Remission,"[1]; Patient # 1, ER 0, PR 0, Her2neu 0",yes
same,Clinical Remission,"[1]; Patient # 3, ER 0, PR 0, Her2neu 0",yes
same,Clinical Remission,"[1]; Patient # 6, receptor status unknown",yes
same,efficacy in shrinking cancerous tissues,"[1]; clinical study overall, including ER negative cancers",excellent efficacy
same,tissue reduction of normal or mastopathic appearing tissues,[2],clear tendency for tissue reduction
